PubChem BioAssay (NCI)
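Method: 48-hour compound exposure of cells in 96-well plates, five concentrations, linear interpolation of endpoints. GI50: concentration for 50% inhibition of growth. At the TGI there is no net growth.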

Legend:
Assay in all cases: NCI tumour cell line growth inhibition, 48 h
[1] = tested on: UACC-257 melanoma
[2] = tested on: MALME-3M melanoma
[3] = tested on: HOP-92 NSCLC
[4] = tested on: SNB-75 CNS
[5] = tested on: CCRF-CEM leukemia
[6] = tested on: SF-539 CNS
[7] = tested on: NCI-H226 lung
[8] = tested on: RXF 393 renal
[9] = tested on: NCI-H460 lung
[10] = tested on: KM12 colon

Row | SMILES | TGI [1] [µM] | TGI [2] [µM] | TGI [3] [µM] | TGI [4] [µM] | TGI [5] [µM] | TGI [6] [µM] | TGI [7] [µM] | TGI [8] [µM] | TGI [9] [µM] | TGI [10] [µM] | GI50 [1] [µM] | GI50 [8] [µM] | GI50 [9] [µM] | GI50 [3] [µM] | GI50 [10] [µM] | GI50 [6] [µM] | GI50 [7] [µM] | GI50 [2] [µM] | GI50 [4] [µM] | GI50 [5] [µM]
1 | Cc1cc(Cl)ccc1NC(=O)C1C(=O)C(=O)N(c2ccc(Cl)cc2C)C1=O (stereo not given) | > 100 | > 100 | 54.2 | > 100 | > 100 | > 100 | > 100 |  |  |  |  |  |  |  |  |  |  |  |  | 
2 | O=C1C2c3[nH]c4ccccc4c3C3CCC(c4ccccc4)CC3C2C(=O)N1c1ccccc1 (stereo not given) |  | > 100 |  | 55.9 | > 100 | > 100 | > 100 | > 100 | > 100 | > 100 |  |  |  |  |  |  |  |  |  | 
3 | COc1ccc(-c2cnc(SCC(=O)c3c(C)n(C)n(-c4ccccc4)c3=O)n2-c2ccc(OC)cc2)cc1 | > 50 |  | > 50 |  |  | > 50 | > 50 | > 50 | > 50 | > 50 | > 50 | > 50 | 43.6 | > 50 | > 50 | > 50 | > 50 |  |  | 
4 | O=C(NCCN1CCOCC1)Nc1nc2ccc(Sc3nnc4ccc(-c5ccc(F)cc5)nn34)cc2s1 | > 21.2 | > 21.1 | > 100 |  | > 100 | > 100 | > 100 |  | > 100 | > 100 | 7.94 | 0.522 |  | 3.32 | 0.571 | 2.94 | 3.67 | 3.12 |  | 
5 | N#Cc1c(N)n(C2OC(CO)C(O)C2O)c2ncnc(N)c12 (stereo not given) | 0.574 | 0.161 | > 100 | 3.56 | 1.34 | 0.417 | 0.372 | 1.33 |  | 1.98 |  |  |  |  |  |  |  |  |  | 
6 | N#CC1=C(c2ccccc2)NN(Cc2ccccc2)C(c2ccc(Cl)cc2)CC1=O (stereo not given) | > 100 |  | 45.1 | 46 | > 100 |  | > 100 | 98.2 | 52.9 | 82.1 |  |  |  |  |  |  |  |  |  | 
7 | CN(C)C(=O)C(NCCO)c1ccccc1 (stereo not given) | > 100 |  | > 100 | > 100 |  | > 100 | > 100 | > 100 | > 100 | > 100 |  |  |  |  |  |  |  |  |  | 
8 | CCOc1cccc2sc(N)nc12 | > 100 | > 100 | > 100 | > 100 |  | > 100 | > 100 | > 100 | > 100 | > 100 |  |  |  |  |  |  |  |  |  | 
9 | Cc1cc(NCCCNc2ccnc3cc(Cl)ccc23)nc(Nc2ccc(C(=O)N3CCCCC3)cc2)n1 | 4.56 | 4.15 |  | 3.69 | 8.4 | 3.56 | 36.9 | 3.67 | 7.63 | 11.6 | 2.39 | 1.8 | 2.7 |  | 2.96 | 1.89 | 21.8 | 2.34 | 1.69 | 2.48
10 | CN1C(=O)C(C)(C)NS1(=O)=O | > 100 | > 100 |  | > 100 | > 100 | > 100 |  | > 100 | > 100 | > 100 |  |  |  |  |  |  |  |  |  | 
11 | CO[C@H](C(=O)O[C@H]1C(=O)N2CCC3CCC1C32C)c1ccccc1 (stereo not given in full) | > 100 | > 100 |  | > 100 | > 100 | > 100 | > 100 | > 100 | > 100 | > 100 |  |  |  |  |  |  |  |  |  | 
12 | CC(C)COC(=O)N1N=NC2C3CC(=O)C(O3)C21 (stereo not given) | > 100 | > 100 | > 100 | > 100 | > 100 | > 100 |  | > 100 | > 100 | > 100 |  |  |  |  |  |  |  |  |  | 
13 | C/C(=N\NC(=O)C[n+]1ccccc1)c1sc(-c2nc(C)c(/C(C)=N/NC(=O)C[n+]3ccccc3)s2)nc1C | > 100 | > 100 | > 100 | > 100 |  | > 100 | > 100 | > 100 | > 100 | > 100 |  |  |  |  |  |  |  |  |  | 
14 | COC1=CC(=O)c2c(O)c3c(c(O)c2C1=O)OC1(Oc2c(cc4cc(C)oc(=O)c4c2O)CC1O)C3O (stereo not given) | > 100 | 10.3 | > 100 | > 100 | > 100 | > 100 |  |  | 67.8 | > 100 |  |  |  |  |  |  |  |  |  | 
15 | Cc1cc(C)nc(NS(=O)(=O)c2ccc(Nc3nc4nc(NCc5ccccc5)nc(-c5ccc(O)cc5)c4c(=O)[nH]3)cc2)n1 |  | > 100 | 61.3 | > 100 | > 100 | > 100 | > 100 |  | > 100 | > 100 |  |  | 49.9 | 14.6 | 15.5 | > 100 | 55.8 | 32.8 | 64.6 | 54.6
16 | COc1cccc(-c2cc(=O)c3cc(C)c(C)c(C(=O)O)c3o2)c1 | > 100 | > 100 | > 100 | 92.7 | > 100 | > 100 |  |  | > 100 | > 100 |  |  |  |  |  |  |  |  |  | 
17 | COc1ccc(Nc2[nH]n(C3=Nc4ccccc4Sc4ccccc43)c(=O)c2C#N)cc1 | 7.03 | > 100 |  | > 100 | > 100 | 40.9 | 9.81 | 9.75 | 12 | 11.3 | 1.13 | 1.73 | 1.95 |  | 1.64 | 3.37 | 1.48 | 2.67 | 1.51 | 1.19
18 | C=CCNC(=O)ON1C(=O)CCC1=O | > 100 | > 100 | > 100 | > 100 | > 100 | > 100 |  | > 100 | > 100 | > 100 |  |  |  |  |  |  |  |  |  | 
19 | COc1ccc(-c2c(-c3cc4c(c(OC)c3OC)OCO4)noc2N)cc1 | > 100 |  | 46.3 | 0.489 | > 100 |  | > 100 |  | > 45.2 | > 100 | 0.458 |  | 0.379 | 0.679 | 0.179 | 0.32 | 0.804 |  | 0.138 | 0.4
